# Test results as given in US4256760A, “Methods of treating mammals suffering from inflammation and pain” (Laboratorios Bago S.A., priority 1979, dated 1981).
# How the values were obtained:
# [1] = prior art, cited from earlier work; for anti-inflammatory effect (known): administered to mammals
# [2] = Anti-inflammatory activity (carrageenin induced edema test); assay type: in vivo, male rats of Spargue Dawley strain; settings: for % Edema Inhibition, 1 hour / % Edema Inhibition, 3 hours / % Edema Inhibition, 5 hours: oral, 30 min before carrageenin, mg/kg: ASA 100, its ester 173, XAA 120, its ester 186, TAA 60, its ester 88; for % Edema Inhibition, 1 hour: 1 hour after carrageenin; for % Edema Inhibition, 3 hours: 3 hours after carrageenin; for % Edema Inhibition, 5 hours: 5 hours after carrageenin; for anti-inflammatory versus antinociceptive action (in words): conclusion
# Experimental: Anti-inflammatory Activity (Carrageenin induced edema test)
# Fifteen to twenty male rats of Spargue Dawley strain weighing 150-200 g, were employed for each compound tested. 0.1 ml of 1% carrageenin saline suspension was injected into the subplantar region of the right hind-paw. The test compounds were orally administered 30 minutes prior to the injection of carrageenin and the foot volume was determined 1,3 and 5 hours after the injection of carrageenin. The percent swelling in the foot was obtained by comparing the volume before and after the injection of carrageenin, and the rate of inhibition in the treated animals was calculated.
# [3] = Analgesic activity, tail pressure test; assay type: in vivo, male mice of Rockland strain; settings: oral; control (water) = 0; mg/kg: ASA 100, its ester 173, XAA 50, its ester 77, TAA 50, its ester 73.5
# Experimental: Tail pressure test: Ten male mice of Rockland strain weighing 20-25 g were used for each compound tested. The response threshold on applying pressure to the tail was determined with an analgesy meter at 15 and 60 minutes after oral administration of the test compound. The pressure at which a struggle was elicited was read.
# [4] = Analgesic activity, Randall-Selitto's test; assay type: in vivo, male mice of Rockland strain; settings: oral, 30 min before carrageenin; control (water) = 0; mg/kg: ASA 100, its ester 173, XAA 50, its ester 77, TAA 50, its ester 73.5
# Experimental: Randall-Selitto's method: Ten male mice of Rockland strain weighing 25 g were used for each compound tested. 0.1 ml of 1% carrageenin saline suspension was injected into the subplantar region of the right foot. The test compounds were orally administered 30 minutes before the injection. At hourly intervals for 3 hours after the carrageenin injection, the pain threshold for the inflammed feet was measured, determining the amount of pressure with an analgesy meter.
# [5] = Influence on the gastro-intestinal tract (ulceration of the gastric epithelium, Shay et al.); assay type: in vivo, male rats of Sprague Dawley strain
# Experimental: Influence on the gastro-intestinal tract
# Ten male rats of Sprague Dawley strain, weighing 200-300 g were used for each compound tested. According to the method of Shay et al. (Shay, H., Komapov, S. A., Feb. S. S., Meranir, D., Gruenstein, M. Siplet, H. Gastroenterology 5, 43, 1945), under anesthesia, the pylorus was ligated and 4 hours later test compounds were orally administered. The animal was sacrificed 1 hour after compound administration. The stomach was removed and examined for macroscopic damage. The ulceration of the gastric epithelium was evaluated by the following evaluation: 0=no hemorrhage sites; 1=some isolated hemmorrhagic sites; 2=redness of the gastric epithelium; 3=1 to 5 small ulcers with a diameter smaller than 3 mm; 4=many small ulcers; 5=ulcers--greater than 3 mm; 6=perforated ulcer.
# [6] = oral, pylorus ligated, 1 hour after administration, 0=no hemorrhage sites ... 6=perforated ulcer, control 3.0, mg/kg: phenylbutazone 75, ASA 100, its ester 173, XAA 120, its ester 186, TAA 60, its ester 88
# [7] = oral, pylorus ligated, 1 hour after administration, versus control (distilled water) 3.0, doses as for Evaluation
compound,measurement,setting,value
O=C(O)c1cccnc1Nc1cccc(C(F)(F)F)c1 [2 (3'-trifluoromethyl) anilino) pyridine-3-carboxylic acids],anti-inflammatory effect (known),[1],known to have an anti-inflammatory effect
"CC(=O)Oc1ccccc1C(=O)O [Acetylsalicylic acid (ASA), o-Acetylsalicylic acid]","% Edema Inhibition, 1 hour",[2],3.8%
same,"% Edema Inhibition, 3 hours",[2],24.8%
same,"% Edema Inhibition, 5 hours",[2],25.3%
same,"Relative strength, Tail pressure test",[3],1.00
same,"Relative strength, Randall-Selitto test",[4],1.05
same,"Evaluation (ulceration of the gastric epithelium, score 0-6)",[5]; [6],4.1
same,Increase (of ulceration evaluation),[5]; [7],1.1
same,analgesic effect (known),[1],known to have an analgesic effect
O=C(O)c1ccccc1Nc1cccc(C(F)(F)F)c1 [N (3'-trifluoromethylphenyl) anthranylic acid],"% Edema Inhibition, 1 hour",[2],24.3%
same,"% Edema Inhibition, 3 hours",[2],29.3%
same,"% Edema Inhibition, 5 hours",[2],28.3%
same,"Evaluation (ulceration of the gastric epithelium, score 0-6)","[5]; rat, in vivo, po",4.9
same,Increase (of ulceration evaluation),"[5]; rat, in vivo, po",1.9
same,anti-inflammatory effect (known),[1],known to have an anti-inflammatory effect
"Cc1cccc(Nc2ccccc2C(=O)O)c1C [N-(2',3'-xylyl) anthranylic acid (XAA), N (2',3'-dimethylphenyl) anthranylic acid]","Evaluation (ulceration of the gastric epithelium, score 0-6)",[5]; [6],4.2
same,Increase (of ulceration evaluation),[5]; [7],1.2
same,anti-inflammatory effect (known),[1],known to have an anti-inflammatory effect
CCCCC1C(=O)N(c2ccccc2)N(c2ccccc2)C1=O [Phenylbutazone],"Evaluation (ulceration of the gastric epithelium, score 0-6)",[5]; [6],5.5
same,Increase (of ulceration evaluation),[5]; [7],2.5
"Cc1cccc(Nc2ccccc2C(=O)OC2OC(=O)c3ccccc32)c1C (centres unmarked) [Phthalidyl N-(2',3'-xylyl) anthranylate, Phthalydil N(2',3'-xylyl) anthranylate]",anti-inflammatory versus antinociceptive action (in words),[2],act as anti-inflammatory agents more tha as antinociceptive agents
same,"% Edema Inhibition, 1 hour",[2],27.4%
same,"% Edema Inhibition, 3 hours",[2],34.2%
same,"% Edema Inhibition, 5 hours",[2],30.4%
same,"Evaluation (ulceration of the gastric epithelium, score 0-6)",[5]; [6],3.3
same,Increase (of ulceration evaluation),[5]; [7],0.3
"CC(=O)Oc1ccccc1C(=O)OC1OC(=O)c2ccccc21 (centres unmarked) [Phthalidyl acetylsalicylate, Phthalydil o-acetylsalicylate]","% Edema Inhibition, 1 hour",[2],10.2%
same,"% Edema Inhibition, 3 hours",[2],30.30%
same,"% Edema Inhibition, 5 hours",[2],31.0%
same,"Relative strength, Tail pressure test",[3],1.82
same,"Relative strength, Randall-Selitto test",[4],1.54
same,"Evaluation (ulceration of the gastric epithelium, score 0-6)",[5]; [6],3.0
O=C(OC1OC(=O)c2ccccc21)c1ccccc1Nc1cccc(C(F)(F)F)c1 (centres unmarked) [Phthalydil N(3'-trifluoromethylphenyl) anthranylate],anti-inflammatory versus antinociceptive action (in words),[2],act as anti-inflammatory agents more tha as antinociceptive agents
same,"% Edema Inhibition, 1 hour",[2],35.4%
same,"% Edema Inhibition, 3 hours",[2],40.2%
same,"% Edema Inhibition, 5 hours",[2],37.4%
same,"Evaluation (ulceration of the gastric epithelium, score 0-6)",[5]; [6],3.5
same,Increase (of ulceration evaluation),[5]; [7],0.5
